Experimental findings from BindingDB's records for patent US20240262826 (Blueprint Medicines, 2024) are described below.

Mast/stem cell growth factor receptor Kit, sequence (P10721 whole entry): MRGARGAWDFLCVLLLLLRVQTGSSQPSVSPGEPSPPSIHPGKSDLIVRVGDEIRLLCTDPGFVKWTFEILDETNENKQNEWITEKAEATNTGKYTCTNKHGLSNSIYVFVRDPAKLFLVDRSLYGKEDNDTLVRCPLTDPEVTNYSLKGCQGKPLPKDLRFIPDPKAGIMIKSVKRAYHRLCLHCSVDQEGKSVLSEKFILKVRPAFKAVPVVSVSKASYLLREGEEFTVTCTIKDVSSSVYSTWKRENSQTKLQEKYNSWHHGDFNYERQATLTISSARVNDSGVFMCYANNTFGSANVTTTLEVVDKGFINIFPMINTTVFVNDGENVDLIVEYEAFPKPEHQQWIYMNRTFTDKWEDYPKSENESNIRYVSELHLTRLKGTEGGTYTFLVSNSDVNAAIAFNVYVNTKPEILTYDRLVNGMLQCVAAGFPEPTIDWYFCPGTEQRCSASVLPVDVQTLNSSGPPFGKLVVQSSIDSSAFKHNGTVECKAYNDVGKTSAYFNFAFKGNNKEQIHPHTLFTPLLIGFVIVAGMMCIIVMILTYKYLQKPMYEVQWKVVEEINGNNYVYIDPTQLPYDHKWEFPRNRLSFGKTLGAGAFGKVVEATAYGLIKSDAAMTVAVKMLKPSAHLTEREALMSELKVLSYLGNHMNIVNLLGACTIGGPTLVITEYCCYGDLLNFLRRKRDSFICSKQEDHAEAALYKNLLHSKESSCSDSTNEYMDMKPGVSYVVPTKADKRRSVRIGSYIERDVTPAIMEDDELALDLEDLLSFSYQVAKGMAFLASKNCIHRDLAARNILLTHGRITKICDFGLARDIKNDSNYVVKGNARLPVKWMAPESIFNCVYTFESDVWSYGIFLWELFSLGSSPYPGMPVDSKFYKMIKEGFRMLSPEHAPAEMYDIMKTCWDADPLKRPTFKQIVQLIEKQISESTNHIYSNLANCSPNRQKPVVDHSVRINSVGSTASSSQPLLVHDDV

For the assay, the target named is Mast/stem cell growth factor receptor Kit (Homo sapiens, UniProt P10721). As to the kind of experiment: Biochemical Phospho c-Kit Inhibition Assay. On the procedure:
For the PathScan phospho c-kit (Tyr719) sandwich ELISA: M-07e cells were resuspended at 2×10^6 cells/mL in phenol red free, serum-free, GM-CSF-free Iscove's Modified Dulbecco's Medium (IMDM) media with 1% Penicillin-Streptomycin. The cells were then dispensed into the wells of a U-bottom, 96-well plate at 50 uL per well using a multichannel pipet. The plate was allowed to incubate at 37° C. in a humidified tissue culture incubator for 4 hours.After 4 hours of incubation, each well was dosed with 6.25 uL of test compound at a final DMSO concentration of 0.25% for 60 min at 37° C. to generate an 8-point dose concentration series of test compounds in duplicate. Cells were then incubated for 1 hour at 37° C. in a humidified tissue culture incubator. Next, human SCF at 500 ng/mL was added to the appropriate wells at 6.25 uL/well and the plate was shaken at 450 rpm at room temperature for 10 minutes. AlphaLISA 5× Lysis Buffer supplemented with 1× protease and phosphatase inhibitor was then added at 16 uL/well. The plate was sealed with an adherent cover and shaken at 4° C. at 600 rpm for 30 minutes. After this period of lysis, the plate was stored at −80° C. When the 96-well plate containing M07e lysates was ready to be processed, the plate was brought to room temperature and 40 μl from each well was transferred to the wells of a PathScan Phospho-c-Kit (Tyr719) Sandwich ELISA plate (CST, Catalog #7298). The ELISA plate was sealed with an adherent cover and incubated for 2 hours at 37° C. Next, the wells were washed 4 times with the provided 1× Wash Buffer, and 100 uL/well of reconstituted Detection Antibody was added to each well, the plate sealed with an adherent cover, and incubated at 37° C. for 1 hour. The wash procedure was repeated and 100 uL/well of reconstituted HRP-Linked secondary antibody was added. The plate was sealed with an adherent cover and incubated at 37° C. for 1 hour. The wash procedure was repeated and 100 uL/well of TMB Substrate was added. The plate was incubated for 10 minutes at room temperature or until the positive reaction elicited a blue color in the appropriate wells. 100 uL/well of STOP solution was added and shaken gently for a few seconds a microplate reader or conventional spectrophotometer e.g., a Perkin Elmer Envision multimode plate reader, part #2105-0010.
One may read the IC50 as the concentration at which inhibition is half-maximal. Read a high IC50 as a need for much substance. `Cc1ccc(-c2nnn(C3CC(F)(F)C3)n2)cc1NC(=O)c1cnn2ccc(N3CC[C@H]3CO)cc12` [US20240262826, Compound 104]: half-maximal inhibition (IC50) required 3.5 nM. The figure for `O=C(Nc1cc(-c2nnn(C3CC(F)(F)C3)n2)c(Cl)cc1Cl)c1cnn2ccc(N3CCOCC3)cc12` [US20240262826, Compound 167] is 7.3 nM; for `Cc1ccc(-c2nnn(CCOCC(F)(F)F)n2)cc1NC(=O)c1cnn2ccc(-c3cn[nH]c3)cc12` [US20240262826, Compound 197] it is 1.4 nM.

`Cc1cnn(-c2ccc(C)c(NC(=O)c3cnn4ccc(-c5cnn(C[C@H]6CNCCO6)c5)cc34)c2)n1` [US20240262826, Compound 205]: the half-inhibitory concentration (IC50) came out at 8.2 nM. As for `COCCOC[C@@H](O)Cn1cc(-c2ccn3ncc(C(=O)Nc4cc(-c5nnn(C6CC6)n5)c(C)cc4Cl)c3c2)cn1` [US20240262826, Compound 261], the IC50 was 1.7 nM.
